The results in this text go back to article PMC8881610 (Nature Communications, 2022).

What all share (assay type): cell-based
One assay concerns the target T1, GIPR (Homo sapiens, UniProt P48546).
T1 sequence (P48546 22-466): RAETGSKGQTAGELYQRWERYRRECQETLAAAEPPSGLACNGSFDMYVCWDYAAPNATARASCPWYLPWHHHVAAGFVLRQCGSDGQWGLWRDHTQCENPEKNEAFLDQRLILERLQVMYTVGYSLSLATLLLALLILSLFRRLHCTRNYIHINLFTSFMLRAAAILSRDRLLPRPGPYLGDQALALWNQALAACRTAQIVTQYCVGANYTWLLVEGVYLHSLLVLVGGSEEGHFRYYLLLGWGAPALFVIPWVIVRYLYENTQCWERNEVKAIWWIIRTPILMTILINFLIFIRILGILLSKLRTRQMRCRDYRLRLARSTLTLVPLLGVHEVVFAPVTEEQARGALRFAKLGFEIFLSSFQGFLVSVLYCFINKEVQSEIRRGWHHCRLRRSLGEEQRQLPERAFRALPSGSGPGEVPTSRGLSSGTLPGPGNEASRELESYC
Kind of assay: β-arrestin 2 recruitment (BRET). Also noted: expressed in transfected cells; host or cells: HEK293T. To be noted: GIPR WT, HEK293T; for Emax: HEK-293T. How it is done: (§1) After cells were grown for 24 h, transiently transfected cells were then seeded onto poly-D-lysine coated 96-well culture plates (50,000 cells/well) in DMEM with 10% FBS. Cells were grown for 20 h before incubation in assay buffer (HBSS supplemented with 10 mM HEPES, 0.1% BSA or 0.1% casein, pH 7.4) for 30 min at 37 °C. Coelentrazine-h (Yeasen Biotech) was added to a final concentration of 5 μM for 5 min before bioluminescence resonance energy transfer (BRET) readings were made using an EnVision plate reader (PerkinElmer). BRET baseline measurements were collected for 15 cycles prior to ligand addition. After which, BRET was measured for 55 cycles.
Background: Activated receptors often draw arrestin, which recruitment assays turn into a signal.

Assay [1] addresses T2, GLP-1R (Homo sapiens, UniProt P43220). The assay can be described thus: β-arrestin 2 recruitment (BRET). Also noted: expressed in transfected cells; host or cells: HEK293T. The conditions noted are these: GLP-1R WT, HEK293T; for Emax: HEK-293T. How it is done:
as §1, with “HEK293T cells (3.2 × 10^6 cells/10 cm plate) were grown for 24 h before transiently transfection with 15 μg plasmid containing GIPR, GLP-1R or GCGR tagged with Rluc8 and β-arrestin 2 with a Venus-tag at the N terminus at a ratio of 1:9 by Lipofectamine 3000 transfection reagent. After cells” for “After cells”

Assay [2] concerns the target T2, GLP-1R. Kind of assay: cAMP accumulation assay, GLP-1R WT, mutant or modified constructs. Set-up: Flag; expressed in transfected cells; host or cells: HEK293T. To be noted: HEK293T; for Emax: HEK-293T. As to the method: Human embryonic kidney 293 cells containing SV40 large T-antigen (HEK293T) were cultured in DMEM (Gibco) supplemented with 10% (v/v) fetal bovine serum (FBS, Gibco), 1 mM sodium pyruvate (Gibco) and 100 units/mL penicillin and 100 μg/mL streptomycin at 37 °C in 5% CO2. Chinese hamster ovary (CHO-K1) cells were cultured in F-12 (Gibco) containing 10% FBS, 100 units/mL penicillin and 100 μg/mL streptomycin at 37 °C in 5% CO2. For cAMP and receptor expression assays, HEK293T cells were seeded into 6-well cell culture plates at a density of 7 × 10^5 cells per well. After overnight incubation, cells were transfected with GIPR, GLP-1R or GCGR construct using Lipofectamine 2000 or Lipofectamine 3000 transfection reagent (Invitrogen). For whole-cell binding assay, CHO-K1 cells were seeded into 96-well fibronectin-treated cell culture plates at a density of 3 × 10^4 cells per well. After overnight incubation, cells were transfected with GIPR, GLP-1R or GCGR construct using Lipofectamine 2000 transfection reagent (Invitrogen). Following 24 h culturing, the transfected cells were ready for use.
The human GLP-1R was modified with its native signal sequence (M1-P23) replaced by the HA signal peptide to facilitate receptor expression. To obtain a GLP-1R–Gs complex with good homogeneity and stability, we used the NanoBiT tethering strategy, in which the C terminus of GLP-1R was directly attached to LgBiT subunit followed by a TEV protease cleavage site and a double MBP tag. […] The constructs were cloned into both pcDNA3.1 and pFastBac vectors for functional assays in mammalian cells and protein expression in insect cells, respectively. Other constructs including the full-length and various mutants of human GLP-1R were cloned into pcDNA3.1 vector for cAMP accumulation and whole-cell binding assays.
For GIPR, GLP-1R and GCGR, multi-targeting agonist stimulated cAMP accumulation was measured by a LANCE Ultra cAMP kit (PerkinElmer). After 24 h culture, the transfected cells were seeded into 384-well microtiter plates at a density of 3,000 cells per well in HBSS supplemented with 5 mM HEPES, 0.1% (w/v) BSA or 0.1% (w/v) casein and 0.5 mM 3-isobutyl-1-methylxanthine. The cells were stimulated with different concentrations of peptide agonists for 40 min at RT. Eu-cAMP tracer and ULight^TM-anti-cAMP were then diluted by cAMP detection buffer and added to the plates separately to terminate the reaction. Plates were incubated at RT for 1 h and the fluorescence intensity measured at 620 nm and […] by an EnVision multilabel plate reader (PerkinElmer).

Setting [3] is: 0.1% casein, read-out: β-arrestin 2 recruitment pEC50 (converted).

T2 sequence (P43220 24-463): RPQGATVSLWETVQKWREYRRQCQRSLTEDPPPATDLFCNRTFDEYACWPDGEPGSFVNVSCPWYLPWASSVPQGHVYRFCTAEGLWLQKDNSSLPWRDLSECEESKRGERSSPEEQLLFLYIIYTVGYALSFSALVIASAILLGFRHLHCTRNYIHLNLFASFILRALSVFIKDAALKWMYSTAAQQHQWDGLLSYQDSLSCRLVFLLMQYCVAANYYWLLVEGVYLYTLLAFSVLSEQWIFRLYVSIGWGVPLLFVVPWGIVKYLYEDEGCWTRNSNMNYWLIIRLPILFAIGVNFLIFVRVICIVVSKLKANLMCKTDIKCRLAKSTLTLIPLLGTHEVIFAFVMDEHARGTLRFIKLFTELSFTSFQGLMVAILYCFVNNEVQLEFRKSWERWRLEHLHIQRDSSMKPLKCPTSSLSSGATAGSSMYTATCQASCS

For orientation: Emax means the size of the effect at its maximum, as opposed to the concentration needed. Regarding `CC[C@H](C)[C@H](NC(=O)[C@H](CC(C)C)NC(=O)[C@H](Cc1c[nH]c2ccccc12)NC(=O)[C@H](CCC(N)=O)NC(=O)[C@@H](NC(=O)[C@H](Cc1ccccc1)NC(=O)[C@H](C)NC(=O)[C@H](CCCCN)NC(=O)[C@H](CCC(N)=O)NC(=O)[C@H](C)NC(=O)[C@@H](NC(=O)[C@H](CCCCN)NC(=O)[C@H](CC(=O)O)NC(=O)[C@H](CC(C)C)NC(=O)C(C)(C)NC(=O)[C@@H](NC(=O)[C@H](CO)NC(=O)[C@H](Cc1ccc(O)cc1)NC(=O)[C@H](CC(=O)O)NC(=O)[C@H](CO)NC(=O)[C@@H](NC(=O)[C@H](Cc1ccccc1)NC(=O)[C@@H](NC(=O)CNC(=O)[C@H](CCC(=O)O)NC(=O)C(C)(C)NC(=O)[C@@H](N)Cc1ccc(O)cc1)[C@@H](C)O)[C@@H](C)O)[C@@H](C)CC)[C@@H](C)CC)C(C)C)C(=O)N[C@@H](C)C(=O)NCC(=O)NCC(=O)N1CCC[C@H]1C(=O)N[C@@H](CO)C(=O)N[C@@H](CO)C(=O)NCC(=O)N[C@@H](C)C(=O)N1CCC[C@H]1C(=O)N1CCC[C@H]1C(=O)N1CCC[C@H]1C(=O)N[C@@H](CO)C(N)=O` [Non-acylated tirzepatide], the EC50 on GIPR (setting [3]) is 14.8 nM; at GLP-1R [1] (setting [3]), 27.5 nM; on GLP-1R [2] (GLP-1R WT, 0.1% BSA, read-out: cAMP accumulation pEC50 (converted)), 4.68 pM; at GLP-1R [2] (GLP-1R, effect of tirzepatide acylation, read-out: cAMP pEC50 (converted)), 7.94 pM. Besides, the Emax at GIPR (0.1% BSA) came out at 57.1 ± 1.97%; on GIPR (0.1% casein) it was 59.8 ± 1.01%; on GLP-1R [1] (0.1% BSA), 36.6 ± 0.52%; on GLP-1R [1] (0.1% casein) it was 40.77 ± 0.37%; on GLP-1R [2] (GLP-1R WT, 0.1% BSA, read-out: cAMP accumulation Emax), 99.1 ± 1.65%; on GLP-1R [2] (GLP-1R WT, 0.1% casein, read-out: cAMP accumulation Emax) it was 98.76 ± 0.97%. In addition, on GLP-1R [2] (GLP-1R, effect of tirzepatide acylation, read-out: cAMP Emax), the maximal response (Emax) was found to be 100 ± 0.88%.
